Experimental data from paper PMC11913368, “Antilipase activities of cultivated peppermint and rosemary essential oils: in vitro and in silico studies” (Turkish Journal of Biology, 2025).
≈ marks a conversion by molar mass, not a printed value.

Tested on: T1, Candida rugosa lipase (CRL)
T1 construct: gene LIP1
Experiment: p-nitrophenyl laurate hydrolysis, absorbance at […] nm
Format: biochemical, Diutina rugosa
Settings: substrate p-NPL, pH 7, 37 °C, 15 min preincubation with enzyme; reference compound

Which “IC50 value” does the source give for `O=c1c(O)c(-c2ccc(O)c(O)c2)oc2cc(O)cc(O)c12` [Quercetin] here?
Its value is 320 ± 4 µg/mL (≈ 1060 µM).

For `CCCCCCCCCCC[C@@H](C[C@@H]1OC(=O)[C@H]1CCCCCC)OC(=O)[C@H](CC(C)C)NC=O` [Orlistat], which “IC50 value” is on record?
Its value is 60 ± 0 µg/mL (≈ 121 µM).
